Like-named read-outs stand apart in the source and are kept apart here.
Experiments:
Amaranthus rudis (AMATA) = experiment: Postemergence herbicide evaluation, percent reduction in plant size vs untreated control, 21 days after treatment; type: in vivo, Amaranthus rudis (tall water hemp); conditions: Amaranthus tuberculatus, post-emergence, 504 h, AMATA, postemergence, read-out: Control/Injury; for pest or weed control at 140 g/ha: rate 140 g ae/ha; for pest or weed control at 280 g/ha: rate 280 g ae/ha
In short: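 Greenhouse-grown tall waterhemp (25-28° C, 16 h light) at the 2-8 leaf stage, treated by track sprayer at 187 L/ha with compound at 140 or 280 g ae/ha in acetone/DMSO-based spray solution with crop oil and surfactant. 3-4 replicates per treatment, randomized complete block; plant size reduction versus untreated control measured 21 days after treatment.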

[1] = test system: Ambrosia artemisiifolia (AMBEL); experiment: as above; type: in vivo, Ambrosia artemisiifolia (common ragweed); conditions: post-emergence, 504 h, AMBEL, postemergence, read-out: Control/Injury; for pest or weed control at 140 g/ha: rate 140 g ae/ha; for pest or weed control at 280 g/ha: rate 280 g ae/ha
In short: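 Greenhouse-grown plants (25–28 °C, 16 h light) were sprayed postemergence at the 2–8 leaf stage with 140 or 280 g ae/ha in acetone/DMSO-based spray solution with crop oil and surfactant, at 187 L/ha by track sprayer. There were 3–4 replicates. Plant size was measured 21 days after treatment versus untreated plants.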

Kochia scoparia (KCHSC) = experiment: as above; type: in vivo; conditions: Bassia scoparia, post-emergence, 504 h, KCHSC, postemergence, 21 days after treatment, read-out: Control/Injury; for pest or weed control at 140 g/ha: rate 140 g ae/ha; for pest or weed control at 280 g/ha: rate 280 g ae/ha
In short: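 Greenhouse-grown plants (25-28 °C, 16 h light) at the 2 to 8 leaf stage were track-sprayed postemergence at 140 or 280 g ae/ha in acetone/DMSO-based spray solution with crop oil and surfactant, at 187 L/ha, in 3-4 randomized replicates.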

[2] = test system: Amaranthus palmeri (AMAPA); experiment: as above; type: in vivo, Amaranthus palmeri (Palmer amaranth); conditions: post-emergence, 504 h, postemergence, read-out: Control/Injury; for pest or weed control at 140 g/ha: rate 140 g ae/ha; for pest or weed control at 280 g/ha: rate 280 g ae/ha
In short: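 Greenhouse-grown Palmer amaranth (25 to 28° C, 16 h light) sprayed postemergence at the 2 to 8 leaf stage with 140 or 280 g ae/ha in acetone/DMSO-based solution containing crop oil concentrate, 187 L/ha by track sprayer. Three to four replicates; plant size measured 21 days after treatment as percent reduction versus untreated control.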

[3] = test system: Conyza canadensis (L.) (ERICA); experiment: as above; type: in vivo, Conyza canadensis (L.) (Horseweed); conditions: Erigeron canadensis, post-emergence, 504 h, ERICA, postemergence, read-out: Control/Injury; for pest or weed control at 140 g/ha: rate 140 g ae/ha; for pest or weed control at 280 g/ha: rate 280 g ae/ha
In short: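 Horseshoe-weed (horseweed) seedlings at 2 to 8 leaf stage in greenhouse (25-28° C, 16 h light), sprayed postemergence at 140 or 280 g ae/ha in acetone/DMSO-based spray solution, 187 L/ha track-sprayer. Randomized complete block, 3-4 replicates; plant size measured 21 days after treatment as percent reduction vs untreated controls.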

Glycine max = experiment: whole plant or invertebrate; conditions: for plant injury at 140 g/ha / plant injury at 280 g/ha: Glycine max, post-emergence, 504 h, read-out: Control/Injury; for Control/Injury: in vivo
Protocol: Plants were grown in a soil media composed of 90% by volume Promix BX (Premier Tech Horticulture, Quakertown, PA) and 10% Profile Greens Grade (Profile Products LLC, Buffalo Grove, IL). Promix BX contains approximately 83% Sphagnum Peat Moss, 13% Perlite, 5% vermiculite, and proprietary amounts of limestone, starter fertilizer, and wetting agent. Profile Greens Grade is a sand-sized granule formed from calcining illite and montmorillonite clay. Several seeds of each species were planted in 10 cm square pots and top watered twice daily. Plant material was propagated in a warm greenhouse with temperature ranging from 25 to 28° C. and 50 to 60% relative humidity at the Corteva Global Headquarters (Indianapolis, Indiana, USA). Natural light was supplemented with 1000-watt metal halide overhead lamps with an average illumination of 500 μE m^−2 s^−1 photosynthetic active radiation for 16 consecutive hours each day. Plants were top-watered prior to herbicide application and sub-watered after herbicide application.
Appropriate amounts of test materials were weighed out into glass vials in their technical form to deliver either 140 or 280 g acid equivalent (ae)/ha. The samples were dissolved in 3 ml of Solvent 1. Solvent 1 is 97% acetone and 3% dimethyl sulfoxide and serves as a general-purpose solvent (GPS) for dissolving technical materials. […] The samples were then diluted to their final concentration using 17 ml of solvent 2 for a total of 20 ml of spray solution. Solvent 2 contains 41.58% GPS, 45.53% water, 11.88% isopropyl alcohol, 0.99% crop oil concentrate and 0.02% Trition X-155 surfactant. All percentages are listed on a volume basis. Dicamba diglycolamine was applied as a formulated herbicide, Clarity™ and diluted with solvent 2 to compare all materials in the same spray solution.
Herbicide applications were made to 3 to 4 replicates of each plant species at the 2 to 8 leaf stage, depending on the species. Treatments were applied with a research track-sprayer (Generation III Research Sprayer manufactured by DeVries Manufacturing in Hollandale, MN, USA) calibrated to deliver a spray volume of 187 L/ha. The track-sprayer was fitted with an 8003E nozzle from Spray Systems Company (North Avenue and Schmale Road, P.O. Box 7900, Wheaton, IL 60187), and used a spray pressure of 276 kPa pressure and a speed of 3.1 km/h. The nozzle height was 46 cm above the plant canopy. The experimental design used for the trials was a randomized complete block with 3 or 4 replications per treatment. After application, plants were placed on carts according to the randomization and returned to the greenhouse. Plants were sub-watered after treatment with Indianapolis city water or fertilized three times a week with a commercial fertilizer solution (Jack's Professional 15-5-15 4 Ca 2 Mg fertilizer (manufactured by JR PETERS INC., 6656 Grant Way, Allentown, PA 18106; www.jrpeters.com). Percent visual control assessments were made on a scale of 0 to 100% (where 0 was no control and 100 was complete plant death) at 7, 14, and 21 days after treatment.
In conformity with the methods outlined in Example 49, the effect of representative experimental compounds on the growth of Glycine max was determined at 2 different levels (respectively, 140 and 280 g acid equivalent (ae)/ha) of the experimental actives tested. Plants were treated with one of the compounds, a control plant was not treated. Twenty-one days after treatment, the plants were measured. The data is present as a percent reduction in plant size relative to the untreated control.

[4] = percent reduction vs untreated control
[5] = R-AMAPA, percent reduction vs untreated control, 21 days after treatment
[6] = percent reduction vs untreated control, 21 days after treatment

## COc1c(Cl)ccc(Cl)c1C(=O)OC(=O)c1c(Cl)ccc(Cl)c1OC [Compound A-90]
Amaranthus rudis (AMATA)
  pest or weed control at 140 g/ha: 22%
  pest or weed control at 280 g/ha: 18%
[1]
  pest or weed control at 140 g/ha: 57%
  pest or weed control at 280 g/ha: 67%
Kochia scoparia (KCHSC); [4]
  pest or weed control at 140 g/ha: 17%
  pest or weed control at 280 g/ha: 32%
[2]; [5]
  pest or weed control at 140 g/ha: 32%
  pest or weed control at 280 g/ha: 40%
[3]; [6]
  pest or weed control at 140 g/ha: 30%
  pest or weed control at 280 g/ha: 25%
Glycine max
  plant injury at 140 g/ha: 8%
  plant injury at 280 g/ha: 3%

## CC/C(C)=N/OC(=O)c1c(Cl)ccc(Cl)c1OC [Compound A-91]
Amaranthus rudis (AMATA)
  pest or weed control at 140 g/ha: 72%
  pest or weed control at 280 g/ha: 78%
[1]
  pest or weed control at 140 g/ha: 82%
  pest or weed control at 280 g/ha: 96%
Kochia scoparia (KCHSC); [4]
  pest or weed control at 140 g/ha: 78%
  pest or weed control at 280 g/ha: 98%
[2]; [5]
  pest or weed control at 140 g/ha: 72%
  pest or weed control at 280 g/ha: 88%
[3]; [6]
  pest or weed control at 140 g/ha: 85%
  pest or weed control at 280 g/ha: 88%
Glycine max
  plant injury at 140 g/ha: 3%
  plant injury at 280 g/ha: 3%

## COc1c(Cl)ccc(Cl)c1C(=O)ON1CCCCC1 [Compound A-92]
Amaranthus rudis (AMATA)
  pest or weed control at 140 g/ha: 63%
  pest or weed control at 280 g/ha: 92%
[1]
  pest or weed control at 140 g/ha: 92%
  pest or weed control at 280 g/ha: 96%
Kochia scoparia (KCHSC); [4]
  pest or weed control at 140 g/ha: 83%
  pest or weed control at 280 g/ha: 98%
[2]; [5]
  pest or weed control at 140 g/ha: 78%
  pest or weed control at 280 g/ha: 80%
[3]; [6]
  pest or weed control at 140 g/ha: 85%
  pest or weed control at 280 g/ha: 92%
Glycine max
  plant injury at 140 g/ha: 2%
  plant injury at 280 g/ha: 4%

## CCO/C(C)=N\OC(=O)c1c(Cl)ccc(Cl)c1OC [Compound A-93]
Amaranthus rudis (AMATA)
  pest or weed control at 140 g/ha: 60%
  pest or weed control at 280 g/ha: 75%
[1]
  pest or weed control at 140 g/ha: 68%
  pest or weed control at 280 g/ha: 90%
Kochia scoparia (KCHSC); [4]
  pest or weed control at 140 g/ha: 77%
  pest or weed control at 280 g/ha: 93%
[2]; [5]
  pest or weed control at 140 g/ha: 68%
  pest or weed control at 280 g/ha: 80%
[3]; [6]
  pest or weed control at 140 g/ha: 63%
  pest or weed control at 280 g/ha: 80%
Glycine max
  plant injury at 140 g/ha: 10%
  plant injury at 280 g/ha: 5%

## COc1c(Cl)ccc(Cl)c1C(=O)ONC(=O)c1cccnc1 [Compound A-94]
Amaranthus rudis (AMATA)
  pest or weed control at 140 g/ha: 68%
[1]
  pest or weed control at 140 g/ha: 75%
  pest or weed control at 280 g/ha: 83%
Kochia scoparia (KCHSC); [4]
  pest or weed control at 140 g/ha: 85%
  pest or weed control at 280 g/ha: 93%
Kochia scoparia (KCHSC); percent reduction vs untreated
  pest or weed control at 140 g/ha: 93%
  pest or weed control at 280 g/ha: 98%
[2]; AMAPA
  pest or weed control at 140 g/ha: 83%
  pest or weed control at 280 g/ha: 99%
[2]; [5]
  pest or weed control at 140 g/ha: 73%
  pest or weed control at 280 g/ha: 80%
[3]
  pest or weed control at 140 g/ha: 95%
  pest or weed control at 280 g/ha: 99%
[3]; [6]
  pest or weed control at 140 g/ha: 62%
  pest or weed control at 280 g/ha: 77%
Glycine max
  plant injury at 140 g/ha: 12%
  plant injury at 280 g/ha: 3%
  Control/Injury: 15

## COc1c(Cl)ccc(Cl)c1C(=O)NCc1ccccc1 [Compound A-114]
Amaranthus rudis (AMATA)
  pest or weed control at 140 g/ha: 0%
  pest or weed control at 280 g/ha: 5%
[1]
  pest or weed control at 140 g/ha: 5%
  pest or weed control at 280 g/ha: 0%
Kochia scoparia (KCHSC); percent reduction vs untreated
  pest or weed control at 140 g/ha: 0%
  pest or weed control at 280 g/ha: 0%
[2]; AMAPA
  pest or weed control at 140 g/ha: 5%
  pest or weed control at 280 g/ha: 5%
[3]
  pest or weed control at 140 g/ha: 2%
  pest or weed control at 280 g/ha: 7%
Glycine max
  Control/Injury: 3

## COc1c(Cl)ccc(Cl)c1C(=O)N1C(=O)C(=O)c2ccccc21 [Compound A-116]
Amaranthus rudis (AMATA)
  pest or weed control at 140 g/ha: 5%
  pest or weed control at 280 g/ha: 33%
[1]
  pest or weed control at 140 g/ha: 3%
  pest or weed control at 280 g/ha: 10%
Kochia scoparia (KCHSC); percent reduction vs untreated
  pest or weed control at 140 g/ha: 0%
  pest or weed control at 280 g/ha: 5%
[2]; AMAPA
  pest or weed control at 140 g/ha: 8%
  pest or weed control at 280 g/ha: 30%
[3]
  pest or weed control at 140 g/ha: 3%
  pest or weed control at 280 g/ha: 5%
Glycine max
  Control/Injury: 2

## COc1c(Cl)ccc(Cl)c1C(=O)Oc1cc(C(F)(F)F)n(C)n1 [Compound A-118]
Amaranthus rudis (AMATA)
  pest or weed control at 140 g/ha: 68%
  pest or weed control at 280 g/ha: 80%
[1]
  pest or weed control at 140 g/ha: 80%
  pest or weed control at 280 g/ha: 97%
Kochia scoparia (KCHSC); percent reduction vs untreated
  pest or weed control at 140 g/ha: 83%
  pest or weed control at 280 g/ha: 99%
[2]; AMAPA
  pest or weed control at 140 g/ha: 63%
  pest or weed control at 280 g/ha: 73%
[3]
  pest or weed control at 140 g/ha: 93%
  pest or weed control at 280 g/ha: 96%
Glycine max
  Control/Injury: 8

## COc1c(Cl)ccc(Cl)c1C(=O)Oc1nc(-c2ccccc2)cs1 [Compound A-120]
Amaranthus rudis (AMATA)
  pest or weed control at 140 g/ha: 40%
  pest or weed control at 280 g/ha: 58%
[1]
  pest or weed control at 140 g/ha: 68%
  pest or weed control at 280 g/ha: 85%
Kochia scoparia (KCHSC); percent reduction vs untreated
  pest or weed control at 140 g/ha: 63%
  pest or weed control at 280 g/ha: 85%
[2]; AMAPA
  pest or weed control at 140 g/ha: 28%
  pest or weed control at 280 g/ha: 45%
[3]
  pest or weed control at 140 g/ha: 85%
  pest or weed control at 280 g/ha: 99%
Glycine max
  Control/Injury: 5
